Literature values in US20030124524A1, “Screening assays for identifying modulators of the inflammatory or immune response” (priority 2000, published 2003).
Where two headings read alike, the source gives them in different places.

Substance: rhIL-1ra: recombinant human IL-1 receptor antagonist protein, useful for treatment of rheumatoid arthritis in a genotype-dependent manner
- response to treatment of rheumatoid arthritis (patients carrying at least one IL-1A (+4845) allele 2 (and alleles in linkage disequilibrium)): substantial and significant response
- response to treatment of rheumatoid arthritis (patients homozygous for IL-1A (+4845) allele 1): response no better than placebo
